Experimental findings from patent US8575359B2, “Acid-sensitive linkers for drug delivery” (The Regents of the University of California, priority 2006, dated 2013) are described below.

This experiment relates to human ovarian carcinoma 2008 cells. Nature of the experiment: Cytotoxicity (colony formation assay) on human ovarian carcinoma 2008 cells. The experiment is classed as cell-based. The procedure: Cells were exposed to various concentrations of 10 for 1 hour and survival was determined after a further […] period of growth in drug-free medium.
Human ovarian carcinoma 2008 cells were plated in 6-well plates at a density of 200 cells in 3 mL of media (RPMI-1640+10% Fetal Bovine Serum) per well and incubated overnight to allow the cells to adhere to the bottom of the wells. After overnight incubation the media was removed from each well and fresh growth media containing different concentrations of 10 was added to the wells. The cells were incubated for 1 hour in the presence of 10. Following the removal of the solutions containing 10, the cells were incubated with fresh media for […] to allow surviving cells to form colonies. […] Clusters containing >50 cells were scored as colonies using an AlphaInontech Imager. The colony formation assay was performed in triplicate on 3 independent occasions.
Chem. Int. Ed. 2004, 43, 739-742. Norrisolide Core (5, 11 μmol) was dissolved in 0.5 mL of dichloromethane (DCM). 4-carboxybenzaldehye (19 μmol), N,N′-dicyclohexylcarbodiimide (DCC, 19 μmol) and Dimethylaminopyridine (DMAP, 1 crystal) was added and stirred overnight at 23° C.

Where [1] appears, read: Table 3, human ovarian carcinoma 2008 cells, read-out: IC50.
Where [2] appears, read: human ovarian carcinoma 2008 cells, relative to compound 10.

Where two headings read alike, the source gives them in different places.

A word on the IC50: it is the point on the concentration scale where inhibition reaches its midpoint. In the case of `CCOC(c1ccccc1)n1ccnc1` (stereo not drawn) [Compound 1, N-ethoxybenzylimidazole], the IC50 under setting [1] was 0.01 µM.
Still for that read-out and setting: under `CCOC(c1ccc(Br)cc1)n1ccnc1` (stereo not drawn) [Compound 2] stands 9 µM; under `CCOC(c1ccc([N+](=O)[O-])cc1)n1ccnc1` (stereo not drawn) [Compound 3], 0.1 µM.
Same read-out and setting: under `CCCCc1ccc(C(OCC)n2ccnc2)cc1` (stereo not drawn) [Compound 4] stands 0.25 µM.
On to `CCOC(c1ccccc1Br)n1ccnc1` (stereo not drawn) [Compound 5], for which the concentration for half-maximal inhibition (IC50) under setting [1] was 52 µM.
Same read-out and setting: with `CCOC(c1ccccc1OC)n1ccnc1` (stereo not drawn) [Compound 6] the figure was 55 µM.
As for `COc1cccc2c1C(=O)c1c(O)c3c(c(O)c1C2=O)C[C@@](O)(C(=O)CO)C[C@@H]3O[C@H]1C[C@H](NC(=O)c2ccc(C=O)cc2)[C@H](O)[C@H](C)O1` [Compound 10, N-(4-formylbenzoyl)doxorubicin], the IC50 (1 hour exposure, colony formation, read-out: IC50 against human ovarian carcinoma 2008 cells) was roughly 12 µM.
On to `COc1cccc2c1C(=O)c1c(O)c3c(c(O)c1C2=O)C[C@@](O)(C(=O)CO)C[C@@H]3O[C@H]1C[C@H](N)[C@H](O)[C@H](C)O1` [doxorubicin, Doxorubicin, reference compound], for which the “IC50 fold lower than that of 10” value under setting [2] is recorded as greater than 10 fold.
Take “N-ethoxybenzylimidazole-doxorubicin Conjugate [Compound 9]”: the “IC50 fold higher than that of 10” value under setting [2] worked out at 2 fold.
